Assay results published in ChEMBL document CHEMBL5252567, “Tetrazole-based inhibitors of the bacterial enzyme N-succinyl-l,l-2,6-diaminopimelic acid desuccinylase as potential antibiotics” (Bioorg Med Chem Lett, 2023).

Tests used:
[1] = biological target: T1, Succinyl-diaminopimelate desuccinylase (Haemophilus influenzae (strain ATCC 51907 / DSM 11121 / KW20 / Rd)) (UniProt P44514); assay: Inhibition of Haemophilus influenzae DapE at 100 uM relative to control
T1 sequence (whole entry): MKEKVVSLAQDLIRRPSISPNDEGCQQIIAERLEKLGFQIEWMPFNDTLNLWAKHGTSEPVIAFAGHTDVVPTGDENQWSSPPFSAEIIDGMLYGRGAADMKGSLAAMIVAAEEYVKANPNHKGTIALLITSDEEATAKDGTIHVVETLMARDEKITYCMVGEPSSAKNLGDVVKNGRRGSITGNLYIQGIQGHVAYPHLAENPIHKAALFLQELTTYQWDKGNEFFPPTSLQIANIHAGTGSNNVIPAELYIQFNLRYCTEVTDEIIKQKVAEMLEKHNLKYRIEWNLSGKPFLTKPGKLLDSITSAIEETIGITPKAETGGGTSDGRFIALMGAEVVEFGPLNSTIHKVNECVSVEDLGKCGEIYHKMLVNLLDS

[2] = biological target: T1, Succinyl-diaminopimelate desuccinylase (Haemophilus influenzae (strain ATCC 51907 / DSM 11121 / KW20 / Rd)); assay: Inhibition of Haemophilus influenzae DapE at 75 uM relative to control
[3] = biological target: T2, Succinyl-diaminopimelate desuccinylase (Haemophilus influenzae (strain ATCC 51907 / DSM 11121 / KW20 / Rd), UniProt P44514); assay: Inhibition of Haemophilus influenzae DapE
T2 sequence (P44514 whole entry): T1 sequence (whole entry)

Row | Structure (SMILES) | inhibition [1] | inhibition [2] | IC50 [3]
1 | O=C(CSc1nnnn1-c1ccccc1)Nc1cnccn1 | 10.2% |  | 
2 | CC(Sc1nnnn1-c1ccccc1)C(=O)Nc1cnccn1 (centres undefined) | 9.7% |  | 
3 | O=C(CSc1nnnn1-c1ccccc1)Nc1ccc(Cl)cn1 |  | 39.5% | 
4 | CC(Sc1nnnn1-c1ccccc1)C(=O)Nc1ccon1 (centres undefined) | 17.2% |  | 
5 | CC(Sc1nnnn1-c1ccccc1)C(=O)Nc1ccccc1 (centres undefined) | 55.4% |  | 134 µM
6 | CC(Sc1nnnn1-c1ccccc1)C(=O)NCc1ccccc1 (centres undefined) | 36.3% |  | 
7 | O=C(CSc1nnnn1-c1ccccc1)NCc1ccccc1 | 61.5% |  | 103 µM
8 | O=C(CSc1nnnn1-c1ccccc1)Nc1ccccc1 | 83.8% |  | 54.3 µM
9 | CC(Sc1nnnn1-c1ccccc1)C(=O)Nc1nccs1 (centres undefined) | 35.6% |  | 
10 | O=C(CSc1nnnn1-c1ccccc1)Nc1ccccn1 | 26.5% |  | 
11 | CC(Sc1nnnn1-c1ccccc1)C(=O)Nc1ccccn1 (centres undefined) | 23.2% |  | 
12 | CC(Sc1nnnn1-c1ccccc1)C(=O)Nc1ccc(Cl)cn1 (centres undefined) | 71% |  | 57.3 µM
13 | O=C(CSc1nnnn1-c1ccccc1)Nc1ccon1 | 49.2% |  | 
14 | O=C(CSc1nnnn1-c1ccccc1)Nc1nccs1 | 71.5% |  | 50.2 µM
